# Test results as given in ChEMBL document CHEMBL3751700, “Therapeutic Potential of GPR120 Agonists for the Treatment of Type 2 Diabetes” (ACS Med Chem Lett, 2015).
# Tests used:
# [1] = Agonist activity at human GPR120 long isoform transfected in HEK293 cells assessed as calcium flux by FLIPR assay; assay type: cell-based
# Mus musculus [2] = experiment: Antidiabetic activity in C57bl6 mouse assessed as glucose level at 30 mg/kg by intraperitoneal glucose tolerance test; assay type: functional
# Mus musculus [3] = experiment: Antidiabetic activity in C57bl6 mouse assessed as glucose level at 10 mg/kg by intraperitoneal glucose tolerance test; assay type: functional
# [4] = Agonist activity at human GPR120 short isoform transfected in CHO-K1 cells by beta-arrestin recruitment assay; assay type: cell-based
# [5] = Agonist activity at human GPR120 long isoform transfected in CHO-K1 cells by beta-arrestin recruitment assay; assay type: cell-based
# Mus musculus [6] = experiment: Antidiabetic activity in C57bl6 mouse assessed as glucose level at 3 mg/kg by intraperitoneal glucose tolerance test; assay type: functional
# Mus musculus [7] = experiment: Antidiabetic activity in C57bl6 mouse assessed as glucose level at 3 mg/kg by oral glucose tolerance test; assay type: functional
# Mus musculus [8] = experiment: Antidiabetic activity in DIO mouse assessed as glucose level at 10 mg/kg measured from -30 to 90 mins by oral glucose tolerance test; assay type: functional
# [9] = Agonist activity at human GPR120 short isoform transfected in HEK293 cells assessed as calcium flux by FLIPR assay; assay type: cell-based
EC50 [1] [µM],EC50 [4] [µM],EC50 [5] [µM],EC50 [9] [µM],Structure (SMILES),Activity (Mus musculus [2]) [%],Activity (Mus musculus [3]) [%],Activity (Mus musculus [6]) [%],Activity (Mus musculus [7]) [%],Activity (Mus musculus [8]) [%]
0.037,0.139,0.278,–,O=C(O)CCc1cc(F)c(OCc2c(C3CCCC3)nsc2C(F)(F)F)c(F)c1,–,–,-14,-37,-0.52
–,0.08,–,0.139,OCCCc1cc(F)c(OCc2c(-c3ccc(Cl)cc3F)nsc2C(F)(F)F)c(F)c1,–,–,–,–,–

# The remaining lines, values behind:
Structure (SMILES),EC50 [1] [µM],EC50 [4] [µM],EC50 [5] [µM],EC50 [9] [µM],Activity (Mus musculus [2]) [%],Activity (Mus musculus [3]) [%],Activity (Mus musculus [6]) [%],Activity (Mus musculus [7]) [%],Activity (Mus musculus [8]) [%]
Cc1c(CCC(=O)O)ccc(OCc2c(-c3ccc(Cl)cc3)nsc2C(F)(F)F)c1C,0.155,0.1,0.141,–,-53,-61,-34,–,–
Cc1c(CCC(=O)O)ccc(OCc2sc(F)cc2-c2ccc(Cl)cc2)c1C,0.049,0.083,–,–,–,–,–,–,–
CCc1ccc(-c2cc(F)sc2COc2ccc(CCC(=O)O)c(C)c2C)cc1,0.024,0.205,0.218,–,–,–,–,–,–
Cc1ccccc1-c1snc(Cl)c1COc1c(F)cc(CCC(=O)O)cc1F,0.344,0.99,0.322,–,–,–,–,–,–
